Data reported in PubChem BioAssay AID1259408 (Genetic Toxicology Data Bank (GENE-TOX), 2018).
Calls of active or inactive are those of the source. How the calls were made is not given here.

Tested on: GENE-TOX genotoxicity assays, various organisms and cells
Assay: GENE-TOX mutagenicity studies
[1] = Species/Cell Type: Salmonella typhimurium (one or more of the five standard strains: TA98, TA100, TA1535, TA1537, and TA1538), Assay Type: Histidine reverse gene mutation, Ames assay, Assay Code: SALT, Evaluation Type: Evaluation A (Pre-1980)
[2] = Species/Cell Type: Salmonella typhimurium (one or more of the five standard strains: TA98, TA100, TA1535, TA1537, and TA1538), Assay Type: Histidine reverse gene mutation, Ames assay, Assay Code: SAL+, Evaluation Type: Evaluation A (Pre-1980)
[3] = Species/Cell Type: Human, Assay Type: Sister-chromatid exchange (SCE) in vitro, Assay Code: SC1+, Evaluation Type: Evaluation B (Post-1980)
[4] = Species/Cell Type: Mammalian polychromatic erythrocytes, Assay Type: Micronucleus test, chromosome aberrations, Assay Code: MNT+U, Dose Response: Unconfirmed positive response, Evaluation Type: Evaluation B (Post-1980)
[5] = Species/Cell Type: Saccharomyces cerevisiae, Assay Type: Reverse gene mutation, Assay Code: YERT, Evaluation Type: Evaluation A (Pre-1980)
[6] = Species/Cell Type: Drosophila melanogaster, Assay Type: Sex-linked recessive lethal gene mutation, Assay Code: SRLT, Evaluation Type: Evaluation A (Pre-1980)
[7] = Species/Cell Type: Human lymphocytes, Assay Type: Sister-chromatid exchange (SCE) in vitro, Assay Code: SCLT, Evaluation Type: Evaluation B (Post-1980)
[8] = Species/Cell Type: Human, Assay Type: Sister-chromatid exchange (SCE) in vitro, Assay Code: SC1T, Evaluation Type: Evaluation B (Post-1980)
[9] = Species/Cell Type: Nonhuman, Assay Type: Sister-chromatid exchange (SCE) in vivo, Assay Code: SC3T, Evaluation Type: Evaluation B (Post-1980)
[10] = Species/Cell Type: Bacillus subtilis (H17 vs M45), Assay Type: Rec-assay, spot test, DNA effects (bacterial DNA repair), Assay Code: REW-, Evaluation Type: Evaluation A (Pre-1980)
[11] = Species/Cell Type: Nonhuman, Assay Type: Sister-chromatid exchange (SCE) in vitro, Assay Code: SC2+D, Dose Response: With dose response, Evaluation Type: Evaluation B (Post-1980)
[12] = Species/Cell Type: Salmonella typhimurium (one or more of the five standard strains: TA98, TA100, TA1535, TA1537, and TA1538), Assay Type: Histidine reverse gene mutation, Ames assay, Assay Code: SAL-, Evaluation Type: Evaluation A (Pre-1980)

O=[N+]([O-])c1ccc(Nc2ccc(N=C=S)cc2)cc1
mutagenic call (Species/Cell Type: Salmonella typhimurium, Assay Type: Forward and reverse gene mutation, body fluid assay, Assay Code: BFU+, Evaluation Type: Evaluation A (Pre-1980)): active; positive

Nc1ccc(S(=O)(=O)O)c2ccccc12
mutagenic call [1]: no conclusion

Clc1c(N2CC2)nc(N2CC2)nc1N1CC1
mutagenic call (Species/Cell Type: Aspergillus nidulans, Assay Type: Reverse gene mutation, Assay Code: ASR+, Evaluation Type: Evaluation A (Pre-1980)): active; positive

CN(N=O)C(=O)c1ccccc1
mutagenic call [2]: active; positive

Oc1ccc2c(cc3ccc4cccc5ccc2c3c45)c1O
mutagenic call (Species/Cell Type: Mouse prostate cells, Assay Type: Cell transformation, Assay Code: CTM+D, Dose Response: With dose response, Evaluation Type: Evaluation A (Pre-1980)): active; positive
mutagenic call (Species/Cell Type: Syrian hamster embryo (SHE) cells, Assay Type: Cell transformation, clonal assay, Assay Code: CTC+, Evaluation Type: Evaluation A (Pre-1980)): active; positive

CCCCC=O
mutagenic call (Species/Cell Type: Human lymphocytes, Assay Type: Sister-chromatid exchange (SCE) in vitro, Assay Code: SCL+, Evaluation Type: Evaluation B (Post-1980)): active; positive
mutagenic call [3]: active; positive

O=c1[nH]c2ccccc2n1CCCN1CCC(n2c(=O)[nH]c3cc(Cl)ccc32)CC1
mutagenic call [4]: active; positive

C/C=C\C(=O)O[C@@H]1C[C@H]2O[C@@H]3C=C(C)[C@@H]4O[C@@H]4[C@]3(C)C1(C)[C@]21CO1
mutagenic call [1]: no conclusion

CCNCCNc1ccc(CO)c2sc3ccccc3c(=O)c12
mutagenic call (Species/Cell Type: Fischer rat embryo (RLV/1706) cells, Assay Type: Cell transformation, viral enhanced, Assay Code: CTR+, Evaluation Type: Evaluation A (Pre-1980)): active; positive

CN(C)CCc1c[nH]c2cccc(OP(=O)(O)O)c12
mutagenic call (Species/Cell Type: Mammalian polychromatic erythrocytes, Assay Type: Micronucleus test, chromosome aberrations, Assay Code: MNTT, Evaluation Type: Evaluation A (Pre-1980)): no conclusion

O[C@@H]1[C@H]2O[C@H]2c2cc3ccc4ccccc4c3cc2[C@H]1O
mutagenic call (Species/Cell Type: Chinese hamster lung (V79) cells, Assay Type: Forward gene mutation at the HPRT or ouabain locus, Assay Code: V79+, Evaluation Type: Evaluation A (Pre-1980)): active; positive

CN(C)Cc1cc(Br)ccc1OCC(=O)NN
mutagenic call [5]: no conclusion

O=c1[nH]c(=O)n([C@H]2C[C@H](O)[C@@H](CO)O2)cc1F
mutagenic call (Species/Cell Type: Aspergillus nidulans, Assay Type: Aneuploidy, chromosome aberrations, Assay Code: ASNT, Evaluation Type: Evaluation A (Pre-1980)): no conclusion
mutagenic call (Species/Cell Type: Aspergillus nidulans, Assay Type: Mitotic recombination, Assay Code: ASG+, Evaluation Type: Evaluation A (Pre-1980)): active; positive
mutagenic call (Species/Cell Type: Chinese hamster lung (V79) cells, Assay Type: Forward gene mutation at the HPRT or ouabain locus, Assay Code: V79-, Evaluation Type: Evaluation A (Pre-1980)): inactive; negative
mutagenic call (Species/Cell Type: Drosophila melanogaster, Assay Type: Aneuploidy, sex chromosome gain, chromosome aberrations, Assay Code: DAG+F, Evaluation Type: Evaluation A (Pre-1980)): active; positive
mutagenic call (Species/Cell Type: Drosophila melanogaster, Assay Type: Aneuploidy, whole sex chromosome loss, chromosome aberrations, Assay Code: DAC+F, Evaluation Type: Evaluation A (Pre-1980)): active; positive
mutagenic call [6]: no conclusion
mutagenic call (Species/Cell Type: Escherichia coli polA (W3119 vs P3478), Assay Type: Rec-assay, DNA effects (bacterial DNA repair), Assay Code: RE1-, Evaluation Type: Evaluation A (Pre-1980)): inactive; negative
mutagenic call (Species/Cell Type: Glycine max (soybean), Assay Type: Gene mutation, Assay Code: GLM+, Evaluation Type: Evaluation A (Pre-1980)): active; positive
mutagenic call (Species/Cell Type: Human diploid fibroblasts, Assay Type: Unscheduled DNA synthesis (UDS) in vitro, DNA effects, Assay Code: UDH-, Evaluation Type: Evaluation A (Pre-1980)): inactive; negative
mutagenic call [7]: no conclusion
mutagenic call [3]: active; positive
mutagenic call [4]: active; positive
mutagenic call (Species/Cell Type: Mouse (C3H/10T1/2) cells, Assay Type: Cell transformation, Assay Code: CTH+, Evaluation Type: Evaluation A (Pre-1980)): active; positive
mutagenic call (Species/Cell Type: Neurospora crassa, Assay Type: Aneuploidy, chromosome aberrations, Assay Code: NEN-, Evaluation Type: Evaluation A (Pre-1980)): inactive; negative
call (Species/Cell Type: Nonhuman, Assay Type: In vivo carcinogenicity studies, Assay Code: CCGT, Evaluation Type: Evaluation A (Pre-1980)): no conclusion
mutagenic call (Species/Cell Type: Nonhuman, Assay Type: Sister-chromatid exchange (SCE) in vitro, Assay Code: SC2+, Evaluation Type: Evaluation B (Post-1980)): active; positive
mutagenic call (Species/Cell Type: Saccharomyces cerevisiae, Assay Type: Mitotic recombination or gene conversion, Assay Code: YEH+, Evaluation Type: Evaluation A (Pre-1980)): active; positive
mutagenic call (Species/Cell Type: Salmonella typhimurium, Assay Type: Forward and reverse gene mutation, host-mediated assay, Assay Code: HMA-, Evaluation Type: Evaluation A (Pre-1980)): inactive; negative
mutagenic call (Species/Cell Type: Syrian hamster embryo (SA7/SHE) cells, Assay Type: Cell transformation, viral enhanced, Assay Code: CT7+, Evaluation Type: Evaluation A (Pre-1980)): active; positive
mutagenic call (Species/Cell Type: Syrian hamster embryo (SHE) cells, Assay Type: Cell transformation, clonal assay, Assay Code: CTC-, Evaluation Type: Evaluation A (Pre-1980)): inactive; negative
mutagenic call (Species/Cell Type: Vicia faba, Assay Type: Chromosome aberrations, Assay Code: VIC+, Evaluation Type: Evaluation A (Pre-1980)): active; positive

O=Nc1c([O-])ccc2cc(S(=O)(=O)[O-])ccc12.O=Nc1c([O-])ccc2cc(S(=O)(=O)[O-])ccc12.O=Nc1c([O-])ccc2cc(S(=O)(=O)[O-])ccc12.[Fe+3].[Na+].[Na+].[Na+]
mutagenic call (Species/Cell Type: Bacillus subtilis (H17 vs M45), Assay Type: Rec-assay, spot test, DNA effects (bacterial DNA repair), Assay Code: REWT, Evaluation Type: Evaluation A (Pre-1980)): no conclusion

CCC(C)c1cc([N+](=O)[O-])cc([N+](=O)[O-])c1OC(C)=O (stereo not given)
mutagenic call (Species/Cell Type: Saccharomyces cerevisiae, Assay Type: Mitotic recombination or gene conversion, Assay Code: YEC-, Evaluation Type: Evaluation A (Pre-1980)): inactive; negative

COc1cccc(OC)c1O
mutagenic call [7]: no conclusion
mutagenic call [8]: no conclusion

Cc1ccc(S(=O)(=O)NC(=O)N[C@H]2[C@H]3CC[C@@](C)([C@H]2O)C3(C)C)cc1
mutagenic call [9]: no conclusion

CCN(CC)Cc1cc(CC(=O)NN)ccc1OC(C)C
mutagenic call [5]: no conclusion

O=[Se](=O)(O)O
mutagenic call [10]: inactive; negative
mutagenic call (Species/Cell Type: Human diploid fibroblasts, Assay Type: Unscheduled DNA synthesis (UDS) in vitro, DNA effects, Assay Code: UDH+, Evaluation Type: Evaluation A (Pre-1980)): active; positive
mutagenic call [7]: no conclusion
mutagenic call [8]: no conclusion
mutagenic call (Species/Cell Type: Nonhuman, Assay Type: Sister-chromatid exchange (SCE) in vitro, Assay Code: SC2+*, Activation: With metabolic activation, Evaluation Type: Evaluation B (Post-1980)): active; positive
mutagenic call [2]: active; positive

CCC(=O)ONC(=O)c1ccc2ccccc2c1
mutagenic call [11]: active; positive

CC1CN(/N=C/c2ccc([N+](=O)[O-])o2)C(=O)N1 (stereo not given)
mutagenic call [2]: active; positive

CC(=O)OC[C@]12C[C@H](OC(=O)CC(C)C)C(C)=C[C@H]1O[C@@H]1[C@H](O)[C@@H](OC(C)=O)[C@@]2(C)[C@]12CO2
mutagenic call [10]: inactive; negative
mutagenic call (Species/Cell Type: Saccharomyces cerevisiae, Assay Type: Mitotic recombination or gene conversion, Assay Code: YEH-, Evaluation Type: Evaluation A (Pre-1980)): inactive; negative
mutagenic call [1]: no conclusion

O=C1OC(=O)c2c(Br)c(Br)c(Br)c(Br)c21
mutagenic call [12]: inactive; negative

C#C[C@]1(OC(C)=O)CC[C@H]2[C@@H]3CCC4=CC(=O)CC[C@@H]4[C@H]3CC[C@@]21C
mutagenic call (Species/Cell Type: Rodents, Sex: Male, Assay Type: Dominant lethal test, Assay Code: DLTT, Evaluation Type: Evaluation A (Pre-1980)): no conclusion

CN(C)C(=O)N1CC1
mutagenic call (Species/Cell Type: Schizosaccharomyces pombe, Assay Type: Reverse gene mutation, Assay Code: YEZ+, Evaluation Type: Evaluation A (Pre-1980)): active; positive

CCC1(c2ccccc2)C(=O)N=C(O)NC1=O (stereo not given)
mutagenic call [6]: no conclusion
mutagenic call (Species/Cell Type: Mouse, Sex: Male, Assay Type: Sperm morphology, Assay Code: SPI-, Evaluation Type: Evaluation A (Pre-1980)): inactive; negative
mutagenic call [9]: no conclusion
mutagenic call [12]: inactive; negative

CN(N=O)C(=O)Oc1cccc2ccccc12
mutagenic call (Species/Cell Type: Bacillus subtilis (H17 vs M45T), Assay Type: Rec-assay, spot test, DNA effects (bacterial DNA repair), Assay Code: REX+, Evaluation Type: Evaluation A (Pre-1980)): active; positive
mutagenic call (Species/Cell Type: Escherichia coli WP2, Assay Type: Tryptophan reverse gene mutation, Assay Code: WP2+, Evaluation Type: Evaluation A (Pre-1980)): active; positive
mutagenic call [11]: active; positive
mutagenic call (Species/Cell Type: Saccharomyces cerevisiae, Assay Type: Mitotic recombination or gene conversion, Assay Code: YEC+, Evaluation Type: Evaluation A (Pre-1980)): active; positive
mutagenic call [2]: active; positive

COc1cc2c(c3oc(=O)c4c(c13)CCC4=O)[C@@H]1C[C@H](O)O[C@@H]1O2
mutagenic call [1]: no conclusion
